Test results from US20260199323A1, “LIGAND COMPOUNDS FOR E3 UBIQUITIN LIGASE, PROTEIN DEGRADERS DEVELOPED ON BASIS OF LIGAND COMPOUNDS, AND USES THEREOF” (GLUETACS THERAPEUTICS (SHANGHAI) CO., LTD., priority 2021, published 2026).
Like-named read-outs stand apart in the source and are kept apart here. One block for each molecule: values may come before it.

Assays:
Format in all cases: cell-based, Human
CAL-62 = assay: CCK-8 tumor cell proliferation, CAL-62; parameters: IC50 for inhibiting the proliferation of tumor cells, CAL-62: scale not given here; details: for IC50 for inhibiting the proliferation of tumor cells, CAL-62: 72 h; for IC50: Homo sapiens, Table 18, FAK inhibitor based, CAL-62, read-out: IC50 inhibiting proliferation of tumor cells, CAL-62
Method: (§1) The tumor cells used herein were cultured in a cell culture medium listed in table 4 at 37° C. in an incubator with 5% CO2. Prior to experimentation, all cells used were correctly identified by STR profiling, and tested negative for mycoplasma through routine screenings.
(§2) IC50 values of the compounds of the present disclosure (including the compounds in Tables 1 and 3, and compounds of examples) were measured using the Meilun Cell Counting Kit-8 kit from Dalian Meilun Biotech Co., Ltd. Assay details are as follows: tumor cells were seeded in a 96-well plate at a density listed in Table 5. After 24 h, 100 μL of the inoculated cells were treated with 0.5 μL of the compounds of the present disclosure (including the compounds in Tables 1 and 3, and compounds of examples) at 10 different successively decreasing concentrations (starting at the highest concentration of 10 μM; 5-fold serial dilutions). After the cells were treated with the compounds of the present disclosure for a period of time, the cell viability detection reagent was added to the culture medium for cell viability assessment according to the instructions provided with the CCK-8 kit. […] The growth inhibition of the compounds of the present disclosure on cells was plotted by Prism Graphpad software, and the IC50 values of the compounds of the present disclosure were calculated therefrom.

CCRF-CEM = assay: CCK-8 tumor cell proliferation, CCRF-CEM; parameters: IC50 for inhibiting the proliferation of tumor cells, CCRF-CEM: scale not given here; details: for IC50 for inhibiting the proliferation of tumor cells, CCRF-CEM: 96 h
Method: as §1, §2

SR = assay: CCK-8 tumor cell proliferation, SR; details: for IC50: Homo sapiens, SR, read-out: IC50 inhibiting proliferation of tumor cells, SR
Method: as §1, §2

MDA-MB-231 = assay: CCK-8 tumor cell proliferation, MDA-MB-231; details: Homo sapiens; Table 18, FAK inhibitor based; MDA-MB-231; read-out: IC50 inhibiting proliferation of tumor cells, MDA-MB-231
Method: as §1, §2

[1] = Table 12, designed based on CDK9 inhibitors

SMILES: COc1cc(Nc2c(C#N)cnc3cc(OCCCN4CCN(Cc5ccc6c(c5)CN(C5CCC(=O)NC5=O)C6=O)CC4)c(OC)cc23)c(Cl)cc1Cl (stereo not drawn) [GT-02968, 4-((2,4-dichloro-5-methoxyphenyl)amino)-7-(3-(4-((2-(2,6-dioxopiperidin-3-yl)-1-oxoisoindolin-5-yl)methyl)piperazin-1-yl)propoxy)-6-methoxyquinoline-3-carbonitrile]
- IC50 for inhibiting the proliferation of tumor cells, CAL-62 (CAL-62; Table 13, designed based on BCR-ABL inhibitors): A+

SMILES: Cc1sc2c(c1C)C(c1ccc(Cl)cc1)=N[C@@H](CC(=O)NCc1ccc3c(c1)CN(C1CCC(=O)NC1=O)C3=O)c1nnc(C)n1-2 (stereo partly drawn) [GT-03378, 2-((S)-4-(4-chlorophenyl)-2,3,9-trimethyl-6H-thieno[3,2-f][1,2,4]triazolo[4,3-a][1,4]diazepin-6-yl)-N-((2-(2,6-dioxopiperidin-3-yl)-1-oxoisoindolin-5-yl)methyl)acetamide]
- IC50 for inhibiting the proliferation of tumor cells, CCRF-CEM (CCRF-CEM; Table 16, designed based on BET inhibitors): A+

SMILES: COc1cc(N2CCC(N(C)Cc3ccc4c(c3)C(=O)N(C3CCC(=O)NC3=O)C4=O)CC2)ccc1Nc1ncc(Cl)c(Nc2ccccc2P(C)(C)=O)n1 (stereo not drawn) [GT-03602, 5-(((1-(4-((5-chloro-4-((2-(dimethylphosphoryl)phenyl)amino)pyrimidin-2-yl)amino)-3-methoxyphenyl)piperidin-4-yl)(methyl)amino)methyl)-2-(2,6-dioxopiperidin-3-yl)isoindoline-1,3-dione]
- IC50 (SR; Table 15, ALK inhibitor based): 50 to 100 nM

SMILES: CN(Cc1ccc2c(c1)CN(C1CCC(=O)NC1=O)C2=O)C1CCN(c2ccc(Nc3ncc(C(F)(F)F)c(NCc4cccc(N(C)S(C)(=O)=O)c4)n3)cc2)CC1 (stereo not drawn) [GT-03677, N-(3-(((2-((4-(4-(((2-(2,6-dioxopiperidin-3-yl)-1-oxoisoindolin-5-yl)methyl)(methyl)amino)piperidin-1-yl)phenyl)amino)-5-(trifluoromethyl)pyrimidin-4-yl)amino)methyl)phenyl)-N-methylmethanesulfonamide]
- IC50 (MDA-MB-231): < 50 nM

SMILES: CN(c1cccc(CNc2nc(Nc3ccc(N4CCC(N5CCN(Cc6ccc7c(c6)CN(C6CCC(=O)NC6=O)C7=O)CC5)CC4)cc3)ncc2C(F)(F)F)c1)S(C)(=O)=O (stereo not drawn) [GT-03678, N-(3-(((2-((4-(4-(4-((2-(2,6-dioxopiperidin-3-yl)-1-oxoisoindolin-5-yl)methyl)piperazin-1-yl)piperidin-1-yl)phenyl)amino)-5-(trifluoromethyl)pyrimidin-4-yl)amino)methyl)phenyl)-N-methylmethanesulfonamide]
- IC50 (MDA-MB-231): < 50 nM

SMILES: Cc1nc2c(F)cc(-c3nc(Nc4ccc(N5CCN(Cc6ccc7c(c6)CN(C6CCC(=O)NC6=O)C7=O)CC5)cn4)ncc3F)cc2n1C(C)C (stereo not drawn) [GT-03688, 3-(5-((4-(6-((5-fluoro-4-(4-fluoro-1-isopropyl-2-methyl-1H-benzo[d]imidazol-6-yl)pyrimidin-2-yl)amino)pyridin-3-yl)piperazin-1-yl)methyl)-1-oxoisoindolin-2-yl)piperidine-2,6-dione]
- IC50 for inhibiting the proliferation of tumor cells, SR (SR; Table 14, designed based on CDK4/6 inhibitors, 72 h): A+

SMILES: Cc1cnc(Nc2ccc(N3CCC(N(C)Cc4ccc5c(c4)CN(C4CCC(=O)NC4=O)C5=O)CC3)cc2)nc1Nc1cccc(S(=O)(=O)NC(C)(C)C)c1 (stereo not drawn) [GT-03690, N-(tert-butyl)-3-((2-((4-(4-(((2-(2,6-dioxopiperidin-3-yl)-1-oxoisoindolin-5-yl)methyl)(methyl)amino)piperidin-1-yl)phenyl)amino)-5-methylpyrimidin-4-yl)amino)benzenesulfonamide]
- IC50 (MDA-MB-231): < 50 nM

SMILES: Cc1cnc(Nc2ccc(N3CCC(N4CCN(Cc5ccc6c(c5)CN(C5CCC(=O)NC5=O)C6=O)CC4)CC3)cc2)nc1Nc1cccc(S(=O)(=O)NC(C)(C)C)c1 (stereo not drawn) [GT-03709, N-(tert-butyl)-3-((2-((4-(4-(4-((2-(2,6-dioxopiperidin-3-yl)-1-oxoisoindolin-5-yl)methyl)piperazin-1-yl)piperidin-1-yl)phenyl)amino)-5-methylpyrimidin-4-yl)amino)benzenesulfonamide]
- IC50 (MDA-MB-231): 1000 to 5000 nM

SMILES: CNC(=O)c1ccccc1Nc1cc(Nc2ccc(N3CCN(Cc4cccc5c4CN(C4CCC(=O)NC4=O)C5=O)CC3)cc2OC)ncc1C(F)(F)F (stereo not drawn) [GT-03718, 2-((2-((4-(4-((2-(2,6-dioxopiperidin-3-yl)-1-oxoisoindolin-4-yl)methyl)piperazin-1-yl)-2-methoxyphenyl)amino)-5-(trifluoromethyl)pyridin-4-yl)amino)-N-methylbenzamide]
- IC50 (MDA-MB-231): 1000 to 5000 nM
- IC50 (SR; Table 18, FAK inhibitor based): 100 to 500 nM
- IC50 (CAL-62): 100 to 500 nM

The next lines start with the values.

- IC50 (MDA-MB-231): 50 to 100 nM
- IC50 (SR; Table 18, FAK inhibitor based): < 50 nM
- IC50 (CAL-62): 50 to 100 nM
SMILES: CNC(=O)c1ccccc1Nc1cc(Nc2ccc(N3CCC(N(C)Cc4cc5c(cc4F)C(=O)N(C4CCC(=O)NC4=O)C5)CC3)cc2OC)ncc1C(F)(F)F (stereo not drawn) [GT-03729, 2-((2-((4-(4-(((2-(2,6-dioxopiperidin-3-yl)-6-fluoro-1-oxoisoindolin-5-yl)methyl)(methyl)amino)piperidin-1-yl)-2-methoxyphenyl)amino)-5-(trifluoromethyl)pyridin-4-yl)amino)-N-methylbenzamide]

- IC50 (MDA-MB-231): 50 to 100 nM
- IC50 (SR; Table 18, FAK inhibitor based): < 50 nM
- IC50 (CAL-62): < 50 nM
SMILES: CNC(=O)c1ccccc1Nc1cc(Nc2ccc(N3CCC(N(C)Cc4cc(F)c5c(c4)CN(C4CCC(=O)NC4=O)C5=O)CC3)cc2OC)ncc1C(F)(F)F (stereo not drawn) [GT-03730, 2-((2-((4-(4-(((2-(2,6-dioxopiperidin-3-yl)-7-fluoro-1-oxoisoindolin-5-yl)methyl)(methyl)amino)piperidin-1-yl)-2-methoxyphenyl)amino)-5-(trifluoromethyl)pyridin-4-yl)amino)-N-methylbenzamide]

- IC50 for inhibiting the proliferation of tumor cells, CCRF-CEM (CCRF-CEM; Table 8, designed based on ER inhibitors): A+
SMILES: O=C1CCC(N2C(=O)c3ccc(CBr)cc3C2=O)C(=O)N1 (stereo not drawn) [GT-03788]

- IC50 for inhibiting the proliferation of tumor cells, CCRF-CEM (CCRF-CEM; [1]): A+
SMILES: Cn1ncc(-c2nc(NC3CCN(Cc4ccc5c(c4)CN(C4CCC(=O)NC4=O)C5=O)CC3)ncc2Cl)c1CC1CC1 (stereo not drawn) [GT-04044, 3-(5-((4-((5-chloro-4-(5-(cyclopropylmethyl)-1-methyl-1H-pyrazol-4-yl)pyrimidin-2-yl)amino)piperidin-1-yl)methyl)-1-oxoisoindolin-2-yl)piperidine-2,6-dione]

- IC50 for inhibiting the proliferation of tumor cells, CCRF-CEM (CCRF-CEM; [1]): A+
- IC50 for inhibiting the proliferation of tumor cells, CAL-62 (CAL-62; [1]): A+
SMILES: Cn1ncc(-c2nc(NC3CCN(Cc4ccc5c(c4F)CN(C4CCC(=O)NC4=O)C5=O)CC3)ncc2Cl)c1CC1CC1 (stereo not drawn) [GT-04045, 3-(5-((4-((5-chloro-4-(5-(cyclopropylmethyl)-1-methyl-1H-pyrazol-4-yl)pyrimidin-2-yl)amino)piperidin-1-yl)methyl)-4-fluoro-1-oxoisoindolin-2-yl)piperidine-2,6-dione]

- IC50 for inhibiting the proliferation of tumor cells, CCRF-CEM (CCRF-CEM; [1]): A+
- IC50 for inhibiting the proliferation of tumor cells, CAL-62 (CAL-62; [1]): A+
SMILES: Cn1ncc(-c2nc(NC3CCN(Cc4cc5c(cc4F)C(=O)N(C4CCC(=O)NC4=O)C5)CC3)ncc2Cl)c1CC1CC1 (stereo not drawn) [GT-04046, 3-(5-((4-((5-chloro-4-(5-(cyclopropylmethyl)-1-methyl-1H-pyrazol-4-yl)pyrimidin-2-yl)amino)piperidin-1-yl)methyl)-6-fluoro-1-oxoisoindolin-2-yl)piperidine-2,6-dione]

- IC50 (CCRF-CEM; Homo sapiens, Table 18, FAK inhibitor based, CCRF-CEM, read-out: IC50 inhibiting proliferation of tumor cells, CCRF-CEM): 100 to 500 nM
SMILES: CNC(=O)c1ccccc1Nc1cc(Nc2cc(C)c(C3CCN(Cc4ccc5c(c4)C(=O)N(C4CCC(=O)NC4=O)C5=O)CC3)cc2OC(C)C)ncc1C(F)(F)F (stereo not drawn) [GT-04083, 2-((2-((4-(1-((2-(2,6-dioxopiperidin-3-yl)-1,3-dioxoisoindolin-5-yl)methyl)piperidin-4-yl)-2-isopropoxy-5-methylphenyl)amino)-5-(trifluoromethyl)pyridin-4-yl)amino)-N-methylbenzamide]
